Experimental data from PubChem BioAssay AID256 (DTP/NCI, 2004).
Values joined by “and” are separate entries in the source; they are usually repeats but may differ in a detail not shown here. Equal values may be shown once. Toxic doses and inconclusive results are not listed.

Test system: CD2F1 mice, L1210 leukemia ip, survival T/C
Assay: NCI In Vivo Anticancer Drug Screen. Data for tumor model L1210 Leukemia (intraperitoneal) in CD2F1 (CDF1) mice
Settings: higher = longer survival
How it was run: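 Read-out first: treated-group measurement over vehicle-control measurement, expressed as a ratio. Animals bore a transplanted tumor line and were dosed with compound or vehicle.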

[1] = endpoint: mean survival time, dose: 25.0 mg/kg/injection, schedule: Q01DX009 (oral), vehicle: saline
[2] = endpoint: mean survival time, dose: 50.0 mg/kg/injection, schedule: Q01DX009 (oral), vehicle: saline
[3] = endpoint: mean survival time, dose: 100.0 mg/kg/injection, schedule: Q01DX001 (ip), vehicle: saline
[4] = endpoint: mean survival time, dose: 100.0 mg/kg/injection, schedule: Q04DX003 (ip), vehicle: saline
[5] = endpoint: mean survival time, dose: 200.0 mg/kg/injection, schedule: Q04DX003 (ip), vehicle: saline
[6] = endpoint: mean survival time, dose: 400.0 mg/kg/injection, schedule: Q01DX001 (ip), vehicle: saline
[7] = endpoint: mean survival time, dose: 100.0 mg/kg/injection, schedule: Q01DX001 (ip), vehicle: saline with Tween-80
[8] = endpoint: mean survival time, dose: 200.0 mg/kg/injection, schedule: Q01DX001 (ip), vehicle: saline with Tween-80
[9] = endpoint: mean survival time, dose: 400.0 mg/kg/injection, schedule: Q01DX001 (ip), vehicle: saline with Tween-80

In the case of `COc1cc(C[C@H]2c3cc(OC)c(OC)cc3CCN2C)c(Oc2cc3c(cc2OC)-c2c(OC)c(OC)cc4c2[C@H](C3)N(C)CC4)cc1OC`, the T/C (endpoint: mean survival time, dose: 2.5 mg/kg/injection, schedule: Q03HX016 (ip), vehicle: saline) is reported as 92 % of control, the T/C (endpoint: mean survival time, dose: 2.5 mg/kg/injection, schedule: Q03HX024 (ip), vehicle: saline) is reported as 94 % of control and the T/C (endpoint: mean survival time, dose: 5.0 mg/kg/injection, schedule: Q03HX008 (ip), vehicle: saline) is reported as 95 % of control. For the same molecule, the T/C (endpoint: mean survival time, dose: 5.0 mg/kg/injection, schedule: Q03HX016 (ip), vehicle: saline) was 93 % of control, the T/C (endpoint: mean survival time, dose: 5.0 mg/kg/injection, schedule: Q03HX024 (ip), vehicle: saline) was 91 % of control and the T/C (endpoint: mean survival time, dose: 6.25 mg/kg/injection, schedule: Q01DX009 (ip), vehicle: saline) was 95 % of control. The T/C (endpoint: mean survival time, dose: 10.0 mg/kg/injection, schedule: Q03HX008 (ip), vehicle: saline) was 93 % of control, the T/C (endpoint: mean survival time, dose: 10.0 mg/kg/injection, schedule: Q03HX016 (ip), vehicle: saline) was 91 % of control and the T/C (endpoint: mean survival time, dose: 10.0 mg/kg/injection, schedule: Q03HX024 (ip), vehicle: saline) was 92 % of control. The T/C (endpoint: mean survival time, dose: 12.5 mg/kg/injection, schedule: Q01DX009 (ip), vehicle: saline) was 94 % of control, the T/C (endpoint: mean survival time, dose: 12.5 mg/kg/injection, schedule: Q01DX009 (oral), vehicle: saline) was 98 % of control and the T/C (endpoint: mean survival time, dose: 20.0 mg/kg/injection, schedule: Q03HX008 (ip), vehicle: saline) was 95 % of control. The T/C (endpoint: mean survival time, dose: 20.0 mg/kg/injection, schedule: Q03HX016 (ip), vehicle: saline) was 95 % of control, the T/C (endpoint: mean survival time, dose: 20.0 mg/kg/injection, schedule: Q03HX024 (ip), vehicle: saline) was 96 % of control and the T/C (endpoint: mean survival time, dose: 25.0 mg/kg/injection, schedule: Q01DX009 (ip), vehicle: saline) was 94 % of control. The T/C [1] was 101 % of control, the T/C (endpoint: mean survival time, dose: 25.0 mg/kg/injection, schedule: Q04DX003 (ip), vehicle: saline) was 98 % of control and the T/C (endpoint: mean survival time, dose: 25.0 mg/kg/injection, schedule: Q08DX002 (ip), vehicle: saline) was 92 % of control. The T/C (endpoint: mean survival time, dose: 40.0 mg/kg/injection, schedule: Q03HX008 (ip), vehicle: saline) was 97 % of control, the T/C (endpoint: mean survival time, dose: 40.0 mg/kg/injection, schedule: Q03HX016 (ip), vehicle: saline) was 93 % of control and the T/C (endpoint: mean survival time, dose: 40.0 mg/kg/injection, schedule: Q03HX024 (ip), vehicle: saline) was 89 % of control. For the same molecule, the T/C (endpoint: mean survival time, dose: 50.0 mg/kg/injection, schedule: Q01DX001 (ip), vehicle: saline) was 87 % of control, the T/C (endpoint: mean survival time, dose: 50.0 mg/kg/injection, schedule: Q01DX009 (ip), vehicle: saline) was 94 % of control and the T/C [2] was 96 % of control. For the same molecule, the T/C (endpoint: mean survival time, dose: 50.0 mg/kg/injection, schedule: Q04DX003 (ip), vehicle: saline) was 98 % of control, the T/C (endpoint: mean survival time, dose: 50.0 mg/kg/injection, schedule: Q08DX002 (ip), vehicle: saline) was 94 % of control and the T/C (endpoint: mean survival time, dose: 80.0 mg/kg/injection, schedule: Q03HX008 (ip), vehicle: saline) was 98 % of control. The T/C [3] was 87 % of control, the T/C (endpoint: mean survival time, dose: 100.0 mg/kg/injection, schedule: Q01DX001 (oral), vehicle: saline) was 101 % of control and the T/C (endpoint: mean survival time, dose: 100.0 mg/kg/injection, schedule: Q01DX009 (ip), vehicle: saline) was 94 % of control. The T/C (endpoint: mean survival time, dose: 100.0 mg/kg/injection, schedule: Q01DX009 (oral), vehicle: saline) was 106 % of control, the T/C [4] was 95 % of control and the T/C (endpoint: mean survival time, dose: 100.0 mg/kg/injection, schedule: Q08DX002 (ip), vehicle: saline) was 92 % of control. For the same molecule, the T/C (endpoint: mean survival time, dose: 200.0 mg/kg/injection, schedule: Q01DX001 (oral), vehicle: saline) was 101 % of control, the T/C (endpoint: mean survival time, dose: 200.0 mg/kg/injection, schedule: Q01DX009 (oral), vehicle: saline) was 109 % of control and the T/C [5] was 105 % of control. The T/C (endpoint: mean survival time, dose: 200.0 mg/kg/injection, schedule: Q08DX002 (ip), vehicle: saline) was 94 % of control, the T/C [6] was 89 % of control and the T/C (endpoint: mean survival time, dose: 400.0 mg/kg/injection, schedule: Q01DX001 (oral), vehicle: saline) was 103 % of control. For the same molecule, the T/C (endpoint: mean survival time, dose: 400.0 mg/kg/injection, schedule: Q08DX002 (ip), vehicle: saline) was 90 % of control, the T/C (endpoint: mean survival time, dose: 800.0 mg/kg/injection, schedule: Q01DX001 (ip), vehicle: saline) was 90 % of control and the T/C (endpoint: mean survival time, dose: 800.0 mg/kg/injection, schedule: Q01DX001 (oral), vehicle: saline) was 104 % of control. The T/C (endpoint: mean survival time, dose: 1600.0 mg/kg/injection, schedule: Q01DX001 (oral), vehicle: saline) was 102 % of control.
With `N#CCCCN=[N+]=[N-]` the T/C (endpoint: mean survival time, dose: 75.0 mg/kg/injection, schedule: Q01DX001 (ip), vehicle: saline) was 96 % of control and the T/C (endpoint: mean survival time, dose: 150.0 mg/kg/injection, schedule: Q01DX001 (ip), vehicle: saline) was 101 % of control.
For `COC(=O)c1ccc([N+](=O)[O-])cc1C(=O)OC`, the T/C (endpoint: mean survival time, dose: 100.0 mg/kg/injection, schedule: Q04DX003 (ip), vehicle: saline with Tween-80) was 100 % of control, the T/C (endpoint: mean survival time, dose: 200.0 mg/kg/injection, schedule: Q04DX003 (ip), vehicle: saline with Tween-80) was 108 % of control and the T/C (endpoint: mean survival time, dose: 400.0 mg/kg/injection, schedule: Q04DX003 (ip), vehicle: saline with Tween-80) was 102 % of control.
With `C=C(CN(C)C)c1ccccn1` the T/C (endpoint: mean survival time, dose: 75.0 mg/kg/injection, schedule: Q01DX001 (ip), vehicle: other) was 100 % of control.
With `COC1=CC=C2[C@@H]3Cc4ccc(OC)c5c4[C@]2(CCN3CCCl)C1O5` (stereo partly specified) the T/C (endpoint: mean survival time, dose: 25.0 mg/kg/injection, schedule: Q04DX003 (ip), vehicle: DMSO) was 107 % of control, the T/C (endpoint: mean survival time, dose: 50.0 mg/kg/injection, schedule: Q04DX003 (ip), vehicle: DMSO) was 104 % of control and the T/C (endpoint: mean survival time, dose: 100.0 mg/kg/injection, schedule: Q04DX003 (ip), vehicle: DMSO) was 102 % of control.
In the case of `CCN(CC)c1ccc(N=Nc2cc(Cl)ccc2Cl)c(NC(=O)CSC(C)=O)c1`, the T/C (endpoint: mean survival time, dose: 100.0 mg/kg/injection, schedule: Q04DX003 (ip), vehicle: other) is reported as 94 % of control, the T/C (endpoint: mean survival time, dose: 200.0 mg/kg/injection, schedule: Q04DX003 (ip), vehicle: other) is reported as 100 % of control and the T/C (endpoint: mean survival time, dose: 400.0 mg/kg/injection, schedule: Q04DX003 (ip), vehicle: other) is reported as 97 % of control.
With `CO[C@H]1C[C@](C)(O)Cc2cc3c(c(O)c21)C(=O)c1c(O)cc2c(c1C3=O)O[C@@H]1O[C@@]2(C)[C@H](O)[C@@H](N(C)C)[C@@H]1O` the T/C (endpoint: mean survival time, dose: 0.78 mg/kg/injection, schedule: Q01DX009 (ip), vehicle: other) was 123 % of control and 112 % of control, the T/C (endpoint: mean survival time, dose: 3.12 mg/kg/injection, schedule: Q01DX009 (ip), vehicle: other) was 117 % of control and the T/C (endpoint: mean survival time, dose: 3.13 mg/kg/injection, schedule: Q01DX009 (ip), vehicle: other) was 151 % of control. For the same molecule, the T/C (endpoint: mean survival time, dose: 3.13 mg/kg/injection, schedule: Q01DX009 (oral), vehicle: other) was 112 % of control, the T/C (endpoint: mean survival time, dose: 3.13 mg/kg/injection, schedule: Q01DX009 (oral), vehicle: saline) was 102 % of control and the T/C (endpoint: mean survival time, dose: 6.25 mg/kg/injection, schedule: Q01DX009 (oral), vehicle: other) was 116 % of control. The T/C (endpoint: mean survival time, dose: 6.25 mg/kg/injection, schedule: Q01DX009 (oral), vehicle: saline) was 116 % of control, the T/C (endpoint: mean survival time, dose: 12.5 mg/kg/injection, schedule: Q01DX009 (oral), vehicle: other) was 153 % of control and the T/C (endpoint: mean survival time, dose: 25.0 mg/kg/injection, schedule: Q01DX009 (oral), vehicle: other) was 208 % of control. The T/C [1] was 183 % of control, the T/C (endpoint: mean survival time, dose: 50.0 mg/kg/injection, schedule: Q01DX009 (oral), vehicle: other) was 102 % of control and the T/C [2] was 168 % of control. The T/C (endpoint: median survival time, dose: 6.7 mg/kg/injection, schedule: Q01DX009 (ip), vehicle: other) was 197 % of control and 225 % of control, the T/C (endpoint: median survival time, dose: 10.0 mg/kg/injection, schedule: Q01DX009 (ip), vehicle: other) was 208 % of control and 250 % of control and the T/C (endpoint: median survival time, dose: 15.0 mg/kg/injection, schedule: Q01DX009 (ip), vehicle: other) was 302 % of control and 332 % of control. The T/C (endpoint: median survival time, dose: 22.5 mg/kg/injection, schedule: Q01DX009 (ip), vehicle: other) was 152 % of control and 169 % of control.
`CC(=O)OCC1OC(n2c(Cl)nc3c(Cl)nc(N)nc32)C(OC(C)=O)C1OC(C)=O` (stereo unspecified) was tested, and the T/C [3] was 100 % of control, the T/C (endpoint: mean survival time, dose: 200.0 mg/kg/injection, schedule: Q01DX001 (ip), vehicle: saline) was 100 % of control and the T/C [6] was 97 % of control.
`CNC(=O)OCCN(C)OC` was tested, and the T/C [4] was 95 % of control, the T/C [5] was 98 % of control and the T/C (endpoint: mean survival time, dose: 400.0 mg/kg/injection, schedule: Q04DX003 (ip), vehicle: saline) was 93 % of control.
For `COC(=O)C(Cc1c[nH]c2ccccc12)NC(=O)C(Cc1c[nH]c2ccccc12)NC(=O)OC(C)(C)C` (stereo unspecified), the T/C [7] was 87 % of control, the T/C (endpoint: mean survival time, dose: 100.0 mg/kg/injection, schedule: Q01DX009 (ip), vehicle: saline with Tween-80) was 98 % of control and the T/C [8] was 96 % of control. The T/C (endpoint: mean survival time, dose: 200.0 mg/kg/injection, schedule: Q01DX009 (ip), vehicle: saline with Tween-80) was 96 % of control, the T/C [9] was 100 % of control and the T/C (endpoint: mean survival time, dose: 400.0 mg/kg/injection, schedule: Q01DX009 (ip), vehicle: saline with Tween-80) was 104 % of control.
With `CC(C)(C)N` the T/C [7] was 100 % of control, the T/C [8] was 97 % of control and the T/C [9] was 97 % of control.
